Test results from ChEMBL document CHEMBL1130935, “Synthesis of a paclitaxel isomer: C-2-acetoxy-C-4-benzoate paclitaxel” (Bioorg Med Chem Lett, 1998).
The source made the active and inactive calls. No cut-off for these calls is given here.

Target: Tubulin alpha chain (Sus scrofa) (UniProt P02550)
Assay: Compound was tested for inhibitory activity against tubulin by tubulin polymerization assay; Inactive
Format: functional

Sequence of Tubulin alpha chain (Sus scrofa) (P02550 whole entry, looked up): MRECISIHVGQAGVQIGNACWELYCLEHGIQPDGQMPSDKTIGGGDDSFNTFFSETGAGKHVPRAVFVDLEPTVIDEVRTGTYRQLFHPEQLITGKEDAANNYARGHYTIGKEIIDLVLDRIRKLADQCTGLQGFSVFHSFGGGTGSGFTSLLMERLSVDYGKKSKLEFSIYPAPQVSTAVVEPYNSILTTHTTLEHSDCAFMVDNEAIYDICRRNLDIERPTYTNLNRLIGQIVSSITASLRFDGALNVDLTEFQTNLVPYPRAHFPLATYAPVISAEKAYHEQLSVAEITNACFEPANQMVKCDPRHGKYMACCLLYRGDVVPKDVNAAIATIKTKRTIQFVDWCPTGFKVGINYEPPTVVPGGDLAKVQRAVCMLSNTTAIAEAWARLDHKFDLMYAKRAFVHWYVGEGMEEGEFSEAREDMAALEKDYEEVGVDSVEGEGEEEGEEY

Activity: inactive
SMILES: CC(=O)O[C@H]1C(=O)[C@]2(C)[C@@H](O)CC3OC[C@@]3(OC(=O)c3ccccc3)[C@H]2[C@H](OC(C)=O)[C@]2(O)C[C@H](OC(=O)[C@H](O)[C@@H](NC(=O)c3ccccc3)c3ccccc3)C(C)=C1C2(C)C (stereo partly specified)
